This is an account of results in patent US20050101595A1, “N-containing cycloalkyl-substituted amino-thiazole derivatives and pharmaceutical compositions for inhibiting cell proliferation and methods for their use” (PFIZER INC., priority 2003, published 2005).

Structures can show the parent of a compound that is named as a salt. Where two headings read alike, the source gives them in different places.

Experiment [1] addresses human CDK4 and genetically truncated (1-264) cyclin D3 (Homo sapiens, UniProt P11802). Nature of the experiment: Inhibition of CDK4/Cyclin D Retinoblastoma Kinase Activity. It is filed as biochemical. The settings on record: apparent Ki, CDK4/truncated cyclin D3, Rb fragment substrate, 25 μM ATP. On the procedure:
Cyclin-dependent kinase activity was measured by quantifying the enzyme-catalyzed, time-dependent incorporation of radioactive phosphate from [^32P]ATP or [^33P]ATP into a protein substrate. Unless noted otherwise, assays were performed in 96-well plates in a total volume of 50 μL, in the presence of 10 mM HEPES (N-[2-hydroxyethyl]piperazine-N′-[2-ethanesulfonic acid]) (pH 7.4), 10 mM MgCl2, 25 μM adenosine triphosphate (ATP), 1 mg/mL ovalbumin, 5 μg/mL leupeptin, 1 mM dithiothreitol, 10 mM β-glycerophosphate, 0.1 mM sodium vanadate, 1 mM sodium fluoride, 2.5 mM ethylene glycol-bis(β-aminoethyl ether)-N,N,N′N′-tetraacetic acid (EGTA), 2% (v/v) dimethylsulfoxide, and 0.03-0.4 μCi [^32/33P]ATP per reaction. Reactions were initiated with enzyme, incubated at 30° C., and terminated after 20 minutes by the addition of ethylenediaminetetraacetic acid (EDTA) to 250 mM. The phosphorylated substrate was then captured on a nitrocellulose or phosphocellulose membrane using a 96-well filtration manifold, and unincorporated radioactivity was removed by repeated washing with 0.85% phosphoric acid. Radioactivity was quantified by exposing the dried membranes to a phosphorimager.
Inhibition was measured relative to control wells that contained all reaction components including 2% (v/v) DMSO but no compound, after subtraction of background radioactivity measured in the absence of enzyme. Apparent Ki values of discrete compounds were measured by assaying enzyme activity in the presence of different inhibitor compound concentrations and subtracting the background radioactivity measured in the absence of enzyme. The kinetic parameters (kcat, Km for ATP) were measured for each enzyme under the usual assay conditions by determining the dependence of initial rates on ATP concentration. Inhibition data were fit to an equation for competitive inhibition using Kaleidagraph (Synergy Software), or were fit to an equation for competitive tight-binding inhibition using the software KineTic (BioKin, Ltd.).
Inhibition of CDK4/Cyclin D Retinoblastoma Kinase Activity:
A complex of human CDK4 and genetically truncated (1-264) cyclin D3 was purified using traditional biochemical chromatographic techniques from insect cells that had been co-infected with the corresponding baculovirus expression vectors (see e.g., Meijer and Kim, “Chemical Inhibitors of Cyclin-Dependent Kinases,” Methods in Enzymol,. vol. 283 (1997), pp. 113-128.). The enzyme complex (5 nM) was assayed with 0.3-0.5 μg of purified recombinant retinoblastoma protein fragment (Rb) as a substrate. The engineered Rb fragment (residues 386-928 of the native retinoblastoma protein; 62.3 kDa) contains the majority of the phosphorylation sites found in the native 106-kDa protein, as well as a tag of six histidine residues for ease of purification. Phosphorylated Rb substrate was captured by microfiltration on a nitrocellulose membrane and quantified using a phosphorimager as described above. For measurement of tight-binding inhibitors, the assay duration was extended to 60 minutes, during which the time-dependence of product formation was linear and initial rate conditions were met.

For another experiment, the system named is HCT-116 cell line. The experiment is described as follows: Inhibition of cell growth, tetrazolium salt (MTT) assay. It is filed as cell-based. The settings on record: Homo sapiens, HCT-116, 120 h, MTT, three to five days, read-out: HCT-116 IC50. An outline of the steps: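 Growth inhibition is scored relative to cells receiving only 0.5% (v/v) DMSO. Plated cells rest 4 h, then take compound for three to five days at 37° C; MTT reduction to formazan is read at 540 nm.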

The next experiment addresses CDK2/Cyclin A (Homo sapiens, UniProt P24941). The experiment is described as follows: Inhibition of CDK2/Cyclin A Retinoblastoma Kinase Activity. The class given is biochemical. The conditions noted are these: apparent Ki, CDK2/proteolyzed cyclin A, Rb fragment substrate, 25 μM ATP. An outline of the steps:
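Human CDK2, baculovirus/insect-cell expressed, complexed with proteolyzed cyclin A (10 nM or 19 nM CDK2) phosphorylates an Rb fragment with 25 μM [32P/33P]ATP at pH 7.4, 30° C, for 60 or 75 minutes under initial-rate conditions. Filter-captured radioactivity is read by phosphorimager; apparent Ki from competitive-inhibition fits.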

human CDK4 and genetically truncated (1-264) cyclin D3, sequence (P11802 whole entry, the tested form may be a part): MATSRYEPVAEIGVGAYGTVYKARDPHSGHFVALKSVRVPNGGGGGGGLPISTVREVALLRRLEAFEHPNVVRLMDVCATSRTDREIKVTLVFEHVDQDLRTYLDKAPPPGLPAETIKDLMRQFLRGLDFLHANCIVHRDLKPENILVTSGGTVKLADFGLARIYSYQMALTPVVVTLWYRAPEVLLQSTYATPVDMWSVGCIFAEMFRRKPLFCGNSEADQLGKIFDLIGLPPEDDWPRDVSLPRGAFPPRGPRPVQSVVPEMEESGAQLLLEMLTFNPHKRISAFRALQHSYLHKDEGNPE
human CDK4 and genetically truncated (1-264) cyclin D3, sequence (P30281 1-264 partner): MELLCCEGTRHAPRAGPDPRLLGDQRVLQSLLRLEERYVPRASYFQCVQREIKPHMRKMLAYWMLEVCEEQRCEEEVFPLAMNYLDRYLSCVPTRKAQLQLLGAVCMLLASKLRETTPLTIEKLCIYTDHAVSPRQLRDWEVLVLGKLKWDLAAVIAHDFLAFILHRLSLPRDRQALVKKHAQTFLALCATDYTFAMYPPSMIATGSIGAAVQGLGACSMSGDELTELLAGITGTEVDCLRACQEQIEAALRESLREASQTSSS

With `CC(=O)/C=C/C(=O)N1CCC(Nc2nc(N)c(C(=O)c3c(F)cccc3F)s2)CC1` [Example D16, 1-{4-[4-Amino-5-(2,6-difluoro-benzoyl)-thiazol-2-ylamino]-piperidin-1-yl}-pent-2(E)-ene-1,4-dione], in experiment [1], the Ki is 140 nM. The results for the IC50 with HCT-116 cell line (first HCT-116 column (c4)) and in the experiment with HCT-116 cell line (second HCT-116 column (c5)) were 82 nM and 150 nM, respectively.
In the case of `COc1ccc(Cl)cc1C(=O)N1CCC(Nc2nc(N)c(C(=O)c3c(F)cccc3F)s2)CC1` [Example D19, {4-Amino-2-[1-(5-chloro-2-methoxy-benzoyl)-piperidin-4-ylamino]-thiazol-5-yl}-(2,6-difluoro-phenyl)-methanone], the Ki in experiment [1] came to 79 nM; at CDK2/Cyclin A, 105 nM.
The like results for `CN(C)S(=O)(=O)N1CCC(Nc2nc(N)c(C(=O)c3c(F)cccc3F)s2)CC1` [Example E1, 4-[4-Amino-5-(2,6-difluoro-benzoyl)-thiazol-2-ylamino]-piperidine-1-sulfonic acid dimethylamide] were, in that order, 22 nM and 14 nM.
The like results for `C[C@@H](NC(=O)N1CCC(Nc2nc(N)c(C(=O)c3c(F)cccc3F)s2)CC1)c1ccccc1` [Example B3, 4-[4-Amino-5-(2,6-difluoro-benzoyl)-thiazol-2-ylamino]-piperidine-1-carboxylic Acid (1R-Phenyl-ethyl)-amide] were, in that order, 420 nM and 190 nM.
For `COc1ccccc1/C=C\C(=O)N1CCC(Nc2nc(N)c(C(=O)c3c(F)cccc3F)s2)CC1` [Example D18, 1-{4-[4-Amino-5-(2,6-difluoro-benzoyl)-thiazol-2-ylamino]-piperidin-1-yl}3(Z)-(2-methoxy-phenyl)-propenone] the same measures were 18 nM and 54 nM.
For the compound `Nc1nc(NC2CCNCC2)sc1C(=O)c1c(F)cccc1F` [Example A6, [4-Amino-2-(piperidin-4-ylamino)-thiazol-5-yl]-(2,6-difluoro-phenyl)-methanone], the Ki was 830 nM in experiment [1] and 1000 nM on CDK2/Cyclin A.
For `Nc1nc(NC2CCN(S(=O)(=O)CCN3CCC(c4ccccc4)C3)CC2)sc1C(=O)c1c(F)cccc1F` (stereo not shown) [Example N5, (4-Amino-2-{1-[2-(3-phenyl-pyrrolidin-1-yl)-ethanesulfonyl]-piperidin-4-ylamino}-thiazol-5-yl)-(2,6-difluoro-phenyl)-methanone Hydrochloride Salt.] the same measures were 1.5 nM and 1.8 nM.
In the case of `Nc1nc(NC2CCN(S(=O)(=O)c3ccc(-n4ccnc4)cc3)CC2)sc1C(=O)c1c(F)cccc1F` [Example G30, 1-{4-Amino-2-[1-(4-imidazol-1-yl-benzenesulfonyl)-piperidin-4-ylamino]-thiazol-5-yl}-1-(2,6-difluoro-phenyl)-methanone], the Ki was 0.45 nM in experiment [1] and 0.31 nM on CDK2/Cyclin A.
For `Nc1nc(NC2CCN(S(=O)(=O)CCCn3ccnn3)CC2)sc1C(=O)c1c(F)cccc1F` [Example K3, 1-{4-Amino-2-[1-(3-triazol-1-yl-propane-1-sulfonyl)-piperidin-4-ylamino]-thiazol-5-yl}-1-(2,6-difluoro-phenyl)-methanone.] the same measures were 4 nM and 4.4 nM.
With `Nc1nc(NC2CCN(C(=O)c3ccc(Br)cc3)C2)sc1C(=O)c1c(F)cccc1F` (stereo not shown) [Example C18, {4-Amino-2-[1-(4-bromo-benzoyl)-pyrrolidin-3-ylamino]-thiazol-5-yl}-(2,6-difluoro-phenyl)-methanone], the figures for the Ki (in experiment [1]; at CDK2/Cyclin A) were 210 nM and 77 nM, respectively.
Take `N#Cc1ccc(S(=O)(=O)N2CC[C@H](Nc3nc(N)c(C(=O)c4c(F)cccc4F)s3)C2)cc1` [Example F40, 4-{3S-[4-Amino-5-(2,6-difluoro-benzoyl)-thiazol-2-ylamino]-pyrrolidine-1-sulfonyl}-benzonitrile]: the Ki was determined as 380 nM in experiment [1] and 58 nM at CDK2/Cyclin A.
The like results for `COc1ccc(OC)c(NC(=O)N2CCC(Nc3nc(N)c(C(=O)c4c(F)cccc4F)s3)CC2)c1` [Example B4, 4-[4-Amino-5-(2,6-difluoro-benzoyl)-thiazol-2-ylamino]-piperidine-1-carboxylic Acid (2,5-Dimethoxy-phenyl)-amide] were, in that order, 62 nM and 66 nM.
For `Nc1nc(NC2CCN(S(=O)(=O)c3ccc(Cl)nc3)CC2)sc1C(=O)c1c(F)cccc1F` [Example F21, 1-(4-Amino-2-[1-(6-chloro-pyridine-3-sulfonyl)-piperidin-4-ylamino]-thiazol-5-yl}-1-(2,6-difluoro-phenyl)-methanone] the same measures were 2.5 nM and 1.7 nM.
The like results for `Nc1nc(NC2CCN(S(=O)(=O)c3ccc([N+](=O)[O-])cn3)CC2)sc1C(=O)c1c(F)cccc1F` [Example F29, 1-{4-Amino-2-[1-(5-nitro-pyridine-2-sulfonyl)-piperidin-4-ylamino]-thiazol-5-yl}-1-(2,6-difluoro-phenyl)-methanone] were, in that order, 400 nM and 1000 nM.
In the case of `N#Cc1ccc(S(=O)(=O)N2CCC(Nc3nc(N)c(C(=O)c4c(F)cccc4F)s3)C2)cc1` (stereo not shown) [Example F38, 4-{3-[4-Amino-5-(2,6-difluoro-benzoyl)-thiazol-2-ylamino]-pyrrolidine-1-sulfonyl}-benzonitrile], the values for the Ki (in experiment [1]; on CDK2/Cyclin A) were 360 nM and 99 nM, respectively.
Consider `Cc1ccc(C(=O)/C=C/C(=O)N2CCC(Nc3nc(N)c(C(=O)c4c(F)cccc4F)s3)CC2)cc1` [Example D9, 1-{4-[4-Amino-5-(2,6-difluoro-benzoyl)-thiazol-2-ylamino]-piperidin-1-yl}-4-p-tolyl-but-2(E)-ene-1,4-dione], for which the Ki in experiment [1] is 150 nM; on CDK2/Cyclin A it was 510 nM.
The like results for `CS(=O)(=O)N1CC[C@H](Nc2nc(N)c(C(=O)c3c(F)cccc3F)s2)C1` [Example F41, [4-3S-Amino-2-(1-methanesulfonyl-pyrrolidin-3-ylamino)-thiazol-5-yl]-(2,6-difluoro-phenyl)-methanone] were, in that order, 1600 nM and 750 nM.
Regarding `CCOC(=O)N1CCC(Nc2nc(N)c(C(=O)c3c(F)cccc3F)s2)CC1` [Example A1, 4-[4-Amino-5-(2,6-difluoro-benzoyl)-thiazol-2-ylamino]-piperidine-1-carboxylic Acid Ethyl Ester], the Ki in experiment [1] came out at 82 nM; on CDK2/Cyclin A, 190 nM.
With `CC1(C)CC(Nc2nc(N)c(C(=O)c3c(F)cccc3F)s2)CC(C)(C)N1` [Example A2, [4-Amino-2-(2,2,6,6-tetramethyl-piperidin-4-ylamino)-thiazol-5-yl]-(2,6-difluoro-phenyl)-methanone], the results for the Ki (in experiment [1]; on CDK2/Cyclin A) were over 2000 nM and over 5000 nM, respectively.
The like results for `CC(C)NC(=O)N1CCC(Nc2nc(N)c(C(=O)c3c(F)cccc3F)s2)CC1` [Example B1, 4-[4-Amino-5-(2,6-difluoro-benzoyl)-thiazol-2-ylamino]-piperidine-1-carboxylic Acid Isopropylamide] were, in that order, 380 nM and 410 nM.
In the case of `CS(=O)(=O)N1CCC(Nc2nc(N)c(C(=O)c3c(F)cccc3F)s2)C1` (stereo not shown) [Example F39, [4-Amino-2-(1-methanesulfonyl-pyrrolidin-3-ylamino)-thiazol-5-yl]-(2,6-difluoro-phenyl)-methanone], the Ki was 330 nM in experiment [1] and 520 nM on CDK2/Cyclin A.
